The text below walks through data of patent US11510896B2, “Antiviral compositions for the treatment of infections linked to coronaviruses” (priority 2016, dated 2022).

For series [1], the system named is MERS-CoV strain France-UAE/1612/2013. Nature of the series: microbe, parasite or virus in culture. In kind it is cell-based, MERS-CoV coronavirus. The conditions noted are these: for IC50: Middle East respiratory syndrome-related coronavirus, Vero C1008, 24 h, read-out: IC50 (dose necessary to obtain a 50% viral production inhibition).
Series [2] deals with horses. The conditions noted are these: horses versus ruminants; cited from earlier work.

By IC50 is commonly meant the concentration needed to halve the response being measured. On to `COc1ccc2cc3[n+](cc2c1OC)CCc1cc2c(cc1-3)OCO2` [berberine, Berberine], for which the “reduction of the infectious titres with respect to the control” value in series [1] (12.5 μM) is on record as 78.4%. In addition, in series [1], the IC50 was 3800 nM.
As to `CC[C@@]1([C@@H]2O[C@@H]([C@H]3O[C@@](O)(CO)[C@H](C)C[C@@H]3C)C[C@@H]2C)CC[C@H]([C@]2(C)CC[C@]3(C[C@H](O)[C@@H](C)[C@@H]([C@@H](C)[C@@H](OC)[C@H](C)C(=O)O)O3)O2)O1` [monensin, Monensin], the “reduction of the infectious titres with respect to the control” value in series [1] (6 μM) is on record as 97.8%. For the same molecule, the half-maximal inhibitory concentration (IC50) in series [1] was 1250 nM. In addition, the “LD50 in horses, times less than in ruminants” value in series [2] is 100 times.
